These results are taken from the SangsterLogP compilation.

Each structure is given as a SMILES string.

Broadly, the logD is lipophilicity at a set pH, counting ionised and neutral species.

The series in a line: method code SF-HPLC, from DOI: 10.1080/10826079308019563. The settings on record: pH 11.0.
Regarding `NC1=NCC(CN2CCN(c3ccccc3)CC2)O1` (stereo not given), the logD stood at 0.85.
The figure for `NC1=NCC(CN2CCN(c3ccc(Cl)cc3)CC2)O1` (stereo not given) is 1.71; for `COc1ccccc1N1CCN(CC2CN=C(N)O2)CC1` (stereo not given) it is 0.76; for `NC1=NCC(CN2CCN(c3ccccn3)CC2)O1` (stereo not given) it is 0.48.
The figure for `CCOc1ccccc1N1CCN(CC2CN=C(N)O2)CC1` (stereo not given) is 1.21; for `NC1=NCC(CN2CCN(c3ncccn3)CC2)O1` (stereo not given) it is 0.21.
The molecule `COc1ccc(N2CCN(CC3CN=C(N)O3)CC2)cc1` (stereo not given) gave a logD of 0.68.
The figure for `NC1=NCC(CN2CCN(c3ccc(C(F)(F)F)cc3)CC2)O1` (stereo not given) is 1.23; for `Cc1cccc(N2CCN(CC3CN=C(N)O3)CC2)c1C` (stereo not given) it is 2.19; for `NC1=NCC(CN2CCN(c3ccc(F)cc3)CC2)O1` (stereo not given) it is 1.
In the case of `COc1cccc(N2CCN(CC3CN=C(N)O3)CC2)c1` (stereo not given) it was 0.87; in that of `NC1=NCC(CN2CCN(c3ccc(Cl)c(Cl)c3)CC2)O1` (stereo not given), 2.4; in that of `NC1=NCC(CN2CCN(c3ccccc3Cl)CC2)O1` (stereo not given), 1.87.
In turn, `NC1=NCC(CN2CCN(c3cccc(Cl)c3)CC2)O1` (stereo not given) gave a logD of 1.83.
In turn, `NC1=NCC(CN2CCN(c3cccc(C(F)(F)F)c3)CC2)O1` (stereo not given) gave a logD of 2.21.
